Legend:
[1] = target: mTOR (human recombinant aa mTOR 1360-2549) (Homo sapiens (Human), UniProt P42345); test: mTOR enzymatic test by TR-FRET (phosphorylation of GFP-4EBP1); assay type: biochemical
Outline: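 TR-FRET detection of GFP-4EBP1 phosphorylation by a terbium-labelled anti-phospho-Thr46 antibody. Kinase reaction ran 30 min at room temperature, was quenched with EDTA (10 mM final) plus Tb-antibody (2 nM final) and left 60 min. Emission at 520 and 490 nm after 340 nm excitation, reported as the 520/490 ratio.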

[2] = tested on: U87MG tumour cells; test: Test of in vitro proliferation of U87MG tumour cells; assay type: cell-based; details: Homo sapiens, U-87 MG, 72 h, U87MG cells, 72 hours; read-out: U87 Cell Proliferation IC50
Procedure: Model 4: Test of in vitro Proliferation of U87MG Tumour Cells.
The cell growth is determined with the reagent CellTiter 96 AQueous One Solution Cell Proliferation Assay from Promega (Cat. No. G3581).

[3] = tested on: Akt-pS473 in U87MG cells; details: Homo sapiens, U-87 MG; for IC50: read-out: U87 Akt-pS473 % Inhibition or IC50, nM (IC50), U87MG cells; for inhibition at 3 µM: read-out: U87 Akt-pS473 % Inhibition
[4] = target: PI3Kα (p110α/p85α) (Homo sapiens (Human), UniProt P42336); test: PI3Kα enzymatic test by measuring the consumption of ATP; assay type: biochemical
Sequence of PI3Kα (p110α/p85α) (P42336 whole entry): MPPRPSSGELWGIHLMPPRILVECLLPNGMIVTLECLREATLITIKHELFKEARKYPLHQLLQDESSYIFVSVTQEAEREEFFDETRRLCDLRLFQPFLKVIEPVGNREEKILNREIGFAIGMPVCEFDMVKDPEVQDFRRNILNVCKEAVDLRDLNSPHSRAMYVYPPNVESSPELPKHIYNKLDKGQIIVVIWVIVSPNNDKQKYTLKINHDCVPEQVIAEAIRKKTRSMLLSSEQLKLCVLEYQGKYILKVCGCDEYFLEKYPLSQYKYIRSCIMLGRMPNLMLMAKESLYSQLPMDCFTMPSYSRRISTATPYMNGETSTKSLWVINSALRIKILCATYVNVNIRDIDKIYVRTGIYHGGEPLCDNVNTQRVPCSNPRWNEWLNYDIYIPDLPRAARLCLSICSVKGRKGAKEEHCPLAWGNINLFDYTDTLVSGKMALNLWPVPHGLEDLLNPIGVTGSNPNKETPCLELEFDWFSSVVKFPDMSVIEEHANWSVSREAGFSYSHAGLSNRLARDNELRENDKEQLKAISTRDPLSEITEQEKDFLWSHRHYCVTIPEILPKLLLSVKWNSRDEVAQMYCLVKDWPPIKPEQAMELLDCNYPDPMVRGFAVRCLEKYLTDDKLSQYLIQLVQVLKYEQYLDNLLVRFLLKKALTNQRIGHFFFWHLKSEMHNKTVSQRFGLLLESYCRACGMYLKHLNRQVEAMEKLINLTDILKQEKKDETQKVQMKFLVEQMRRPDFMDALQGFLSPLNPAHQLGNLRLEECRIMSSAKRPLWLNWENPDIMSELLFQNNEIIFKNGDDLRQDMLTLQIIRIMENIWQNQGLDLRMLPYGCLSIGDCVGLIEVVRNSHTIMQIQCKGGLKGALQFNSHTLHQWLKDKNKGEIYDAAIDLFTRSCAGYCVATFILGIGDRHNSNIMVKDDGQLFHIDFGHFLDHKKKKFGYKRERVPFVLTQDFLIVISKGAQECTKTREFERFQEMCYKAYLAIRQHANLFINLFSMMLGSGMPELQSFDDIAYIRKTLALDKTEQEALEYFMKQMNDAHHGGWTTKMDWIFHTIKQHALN
Sequence of PI3Kα (p110α/p85α) (P27986 whole entry partner): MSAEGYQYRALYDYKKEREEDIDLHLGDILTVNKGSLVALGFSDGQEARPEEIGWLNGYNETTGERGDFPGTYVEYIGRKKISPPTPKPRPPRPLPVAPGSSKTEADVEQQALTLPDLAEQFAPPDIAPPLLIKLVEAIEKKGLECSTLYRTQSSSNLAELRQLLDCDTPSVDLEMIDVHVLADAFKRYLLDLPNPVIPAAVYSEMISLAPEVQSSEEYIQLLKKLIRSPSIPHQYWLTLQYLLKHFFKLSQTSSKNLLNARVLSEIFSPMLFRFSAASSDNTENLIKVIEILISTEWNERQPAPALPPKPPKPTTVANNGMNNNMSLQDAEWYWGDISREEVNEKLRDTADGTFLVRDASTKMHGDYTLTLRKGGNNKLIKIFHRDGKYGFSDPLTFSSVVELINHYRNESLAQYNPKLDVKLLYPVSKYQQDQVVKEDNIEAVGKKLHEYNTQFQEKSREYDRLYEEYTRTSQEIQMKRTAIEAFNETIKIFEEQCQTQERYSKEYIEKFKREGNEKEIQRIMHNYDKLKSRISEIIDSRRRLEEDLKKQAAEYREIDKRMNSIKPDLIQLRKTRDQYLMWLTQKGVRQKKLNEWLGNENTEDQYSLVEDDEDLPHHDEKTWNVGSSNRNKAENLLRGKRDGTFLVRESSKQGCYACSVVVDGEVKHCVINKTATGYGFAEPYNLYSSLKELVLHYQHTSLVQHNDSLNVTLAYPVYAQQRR
Outline: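 p110α/p85α (1.7 μg/ml) with 50 μM PIP2 and 2 μM ATP in pH 7.5 Tris buffer with EGTA, MgCl2, Chaps, DTT; reaction 90 min. Remaining ATP measured by luciferin/luciferase luminescence; IC50 from threefold serial dilutions spanning at least 10 000-fold.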

Sequence of mTOR (human recombinant aa mTOR 1360-2549) (P42345 1360-2549): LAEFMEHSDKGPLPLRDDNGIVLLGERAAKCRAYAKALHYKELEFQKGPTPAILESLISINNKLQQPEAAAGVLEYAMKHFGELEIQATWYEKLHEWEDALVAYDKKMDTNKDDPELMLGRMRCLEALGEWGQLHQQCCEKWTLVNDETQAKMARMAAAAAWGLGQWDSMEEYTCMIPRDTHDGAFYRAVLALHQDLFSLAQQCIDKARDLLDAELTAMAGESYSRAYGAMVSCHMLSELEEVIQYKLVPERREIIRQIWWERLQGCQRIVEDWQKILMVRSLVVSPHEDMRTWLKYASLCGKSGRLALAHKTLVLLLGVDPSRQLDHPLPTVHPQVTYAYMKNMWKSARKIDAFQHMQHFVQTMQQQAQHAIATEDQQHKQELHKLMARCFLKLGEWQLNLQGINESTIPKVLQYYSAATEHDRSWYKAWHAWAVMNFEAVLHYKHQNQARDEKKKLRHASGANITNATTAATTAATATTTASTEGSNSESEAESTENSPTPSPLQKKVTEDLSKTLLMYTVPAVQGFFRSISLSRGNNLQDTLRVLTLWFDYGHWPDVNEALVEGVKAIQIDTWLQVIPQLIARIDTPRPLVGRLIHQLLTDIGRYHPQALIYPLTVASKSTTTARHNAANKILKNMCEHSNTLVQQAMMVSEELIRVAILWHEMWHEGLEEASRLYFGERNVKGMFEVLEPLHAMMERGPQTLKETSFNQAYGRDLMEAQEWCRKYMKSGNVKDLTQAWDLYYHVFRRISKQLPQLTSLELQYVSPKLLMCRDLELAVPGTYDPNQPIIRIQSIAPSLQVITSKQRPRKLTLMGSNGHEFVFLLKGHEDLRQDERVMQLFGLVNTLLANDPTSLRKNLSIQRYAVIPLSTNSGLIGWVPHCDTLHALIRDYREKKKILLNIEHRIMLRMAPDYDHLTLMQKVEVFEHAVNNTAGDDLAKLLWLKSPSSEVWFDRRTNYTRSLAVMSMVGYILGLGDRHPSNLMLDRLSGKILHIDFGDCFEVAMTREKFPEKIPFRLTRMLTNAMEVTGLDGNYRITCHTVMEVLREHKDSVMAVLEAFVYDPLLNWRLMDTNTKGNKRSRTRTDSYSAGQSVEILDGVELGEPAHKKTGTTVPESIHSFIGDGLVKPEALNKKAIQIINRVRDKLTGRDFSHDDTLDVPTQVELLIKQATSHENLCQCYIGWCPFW

Row | Compound | IC50 [1] | IC50 [2] | IC50 [3] | PI3Ka IC50 [4] | inhibition at 3 µM [3]
1 | Cc1cc(NC(=O)Nc2ccc(-c3nc(N4CC5CCC(C4)O5)nc4c3C(=O)N(C3CCOCC3)CC(C)(C)O4)cc2)no1 [Example 15, 1-{4-[8,8-dimethyl-2-(8-oxa-3-azabicyclo[3.2.1]oct-3-yl)-5-oxo-6-(tetrahydropyran-4-yl)-5,6,7,8-tetrahydro-9-oxa-1,3,6-triazabenzocyclohepten-4-yl]phenyl}-3-(5-methylisoxazol-3-yl)urea] | 0.012 µM | 0.218 µM | 76 nM | 5.3 µM | –
2 | CCN1CC(C)(C)Oc2nc(N3CCOC[C@@H]3C)nc(-c3ccc(NC(=O)Nc4ccccn4)c(F)c3)c2C1=O [Example 192, 1-{4-[6-Ethyl-8,8-dimethyl-2-((S)-3-methylmorpholin-4-yl)-5-oxo-5,6,7,8-tetrahydro-9-oxa-1,3,6-triazabenzocyclohepten-4-yl]-2-fluorophenyl}-3-pyridin-2-ylurea] | 0.029 µM | 1.77 µM | – | 1.31 µM | 82%
3 | CCN1CC(C)(C)Oc2nc(N3CC4CCC(C3)O4)nc(-c3ccc(NC(=O)Nc4cn(C)cn4)c(F)c3)c2C1=O [Example 194, 1-{4-[6-Ethyl-8,8-dimethyl-2-(8-oxa-3-azabicyclo[3.2.1]oct-3-yl)-5-oxo-5,6,7,8-tetrahydro-9-oxa-1,3,6-triazabenzocyclohepten-4-yl]-2-fluorophenyl}-3-(1-methyl-1H-imidazol-4-yl)urea] | 0.027 µM | 2.13 µM | – | 1.23 µM | 62%
4 | COc1ccnc(NC(=O)Nc2ccc(-c3nc(N4C5CCC4COC5)nc4c3C(=O)N(C)CC(C)(C)O4)cc2)c1 [Example 70, 1-(4-Methoxypyridin-2-yl)-3-{4-[6,8,8-trimethyl-2-(3-oxa-8-azabicyclo[3.2.1]oct-8-yl)-5-oxo-5,6,7,8-tetrahydro-9-oxa-1,3,6-triazabenzocyclohepten-4-yl]phenyl}urea] | 0.027 µM | 0.288 µM | 40 nM | >10 µM | –
5 | CCNC(=O)Nc1ccc(-c2nc(N3C4CCC3COC4)nc3c2C(=O)N(CC)CC(C)(C)O3)cc1F [Example 255, 1-Ethyl-3-{4-[6-ethyl-8,8-dimethyl-2-(3-oxa-8-azabicyclo[3.2.1]oct-8-yl)-5-oxo-5,6,7,8-tetrahydro-9-oxa-1,3,6-triazabenzocyclohepten-4-yl]-2-fluorophenyl}urea] | 0.072 µM | 0.21 µM | 68 nM | >10 µM | –
6 | CCN1CC(C)(C)Oc2nc(N3CCOC[C@@H]3C)nc(-c3ccc(NC(=O)Nc4ccc(N5C[C@@H]6C[C@H]5CO6)nc4)c(F)c3)c2C1=O [Example 252, 1-{4-[6-Ethyl-8,8-dimethyl-2-((S)-3-methylmorpholin-4-yl)-5-oxo-5,6,7,8-tetrahydro-9-oxa-1,3,6-triazabenzocyclohepten-4-yl]-2-fluorophenyl}-3-[(1S,4S)-6-(2-oxa-5-azabicyclo[2.2.1]hept-5-yl)pyridin-3-yl]urea] | 0.068 µM | 0.282 µM | 48 nM | 1.36 µM | –
7 | CCNC(=O)Nc1ccc(-c2nc(N3CCOCC3)nc3c2C(=O)N(CC)CC(C)(C)O3)cc1 [Example 96, 1-Ethyl-3-[4-(6-ethyl-8,8-dimethyl-2-morpholin-4-yl-5-oxo-5,6,7,8-tetrahydro-9-oxa-1,3,6-triazabenzocyclohepten-4-yl)phenyl]urea] | 0.072 µM | 1.47 µM | 107 nM | 1.444 µM | –
8 | Cc1ccc(NC(=O)Nc2ccc(-c3nc(N4C5CCC4COC5)nc4c3C(=O)N(C)CC(C)(C)O4)cc2F)cn1 [Example 67, 1-{2-Fluoro-4-[6,8,8-trimethyl-2-(3-oxa-8-azabicyclo[3.2.1]oct-8-yl)-5-oxo-5,6,7,8-tetrahydro-9-oxa-1,3,6-triazabenzocyclohepten-4-yl]phenyl}-3-(6-methylpyridin-3-yl)urea] | 0.015 µM | 0.069 µM | 20 nM | >10 µM | –
9 | Cc1ccc(NC(=O)Nc2ccc(-c3nc(N4CC5CCC(C4)O5)nc4c3C(=O)N(C)CC(C)(C)O4)cc2F)cn1 [Example 66, 1-{2-Fluoro-4-[6,8,8-trimethyl-2-(8-oxa-3-azabicyclo[3.2.1]oct-3-yl)-5-oxo-5,6,7,8-tetrahydro-9-oxa-1,3,6-triazabenzocyclohepten-4-yl]phenyl}-3-(6-methylpyridin-3-yl)urea] | 0.016 µM | 0.071 µM | 21 nM | 2.95 µM | –
10 | CCN1CC(C)(C)Oc2nc(N3C4CCC3COC4)nc(-c3ccc(NC(=O)Nc4ccncc4)c(F)c3)c2C1=O [Example 51, 1-{4-[6-Ethyl-8,8-dimethyl-2-(3-oxa-8-azabicyclo[3.2.1]oct-8-yl)-5-oxo-5,6,7,8-tetrahydro-9-oxa-1,3,6-triazabenzocyclohepten-4-yl]-2-fluorophenyl}-3-pyridin-4-ylurea] | 0.02 µM | 0.012 µM | 14 nM | 1.9 µM | –
11 | CCN1CC(C)(C)Oc2nc(N3CCOC[C@@H]3C)nc(-c3ccc(NC(=O)Nc4cccc(C)n4)cc3)c2C1=O [Example 36, 1-{4-[6-Ethyl-8,8-dimethyl-2-((S)-3-methylmorpholin-4-yl)-5-oxo-5,6,7,8-tetrahydro-9-oxa-1,3,6-triazabenzocyclohepten-4-yl]phenyl}-3-(6-methylpyridin-2-yl)urea] | 0.055 µM | 0.686 µM | 129 nM | 4.4 µM | –
12 | CCN1CC(C)(C)Oc2nc(N3CC4CCC(C3)O4)nc(-c3ccc(NC(=O)Nc4ccc(N5CCN(C(=O)OC)CC5)cc4)c(F)c3)c2C1=O [Example 236, 4-[4-(3-{4-[6-Ethyl-8,8-dimethyl-2-(8-oxa-3-azabicyclo[3.2.1]oct-3-yl)-5-oxo-5,6,7,8-tetrahydro-9-oxa-1,3,6-triazabenzocyclohepten-4-yl]-2-fluorophenyl}ureido)phenyl]piperazine-1-carboxylic acid methyl ester] | 0.112 µM | 0.029 µM | 20 nM | >7.2 µM | –
13 | COc1ccc(NC(=O)Nc2ccc(-c3nc(N4CCOC[C@@H]4C)nc4c3C(=O)N(C3CCOCC3)CC(C)(C)O4)cc2F)cn1 [Example 189, 1-{4-[8,8-Dimethyl-2-((S)-3-methylmorpholin-4-yl)-5-oxo-6-(tetrahydropyran-4-yl)-5,6,7,8-tetrahydro-9-oxa-1,3,6-triazabenzocyclohepten-4-yl]-2-fluorophenyl}-3-(6-methoxypyridin-3-yl)urea] | 0.062 µM | 0.451 µM | 56 nM | 1.89 µM | –
14 | CCNC(=O)Nc1ccc(-c2nc(N3CC4CCC(C3)O4)nc3c2C(=O)N(CC)CC(C)(C)CO3)cc1 [Example 10, 1-Ethyl-3-{4-[6-ethyl-8,8-dimethyl-2-(8-oxa-3-azabicyclo[3.2.1]oct-3-yl)-5-oxo-6,7,8,9-tetrahydro-5H-10-oxa-1,3,6-triazabenzocycloocten-4-yl]phenyl}urea] | 0.344 µM | 8.77 µM | 611 nM | >10 µM | –
